According to patent US6737383B1, “Herbicidal oxadiazolidines” (priority 1999, dated 2004):

Columns and labels:
corn = assay: Test B pre/postemergence corn; type: in vivo, Zea mays
How it was run: (§1)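 Test chemicals in a non-phytotoxic solvent mixture with surfactant were sprayed preemergence onto planted seeds and postemergence onto plants 2 to 18 cm tall (1- to 4-leaf stage). After twelve to sixteen days in a greenhouse, injury was visually rated against untreated controls from 0 (no effect) to 10 (complete control).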

soybean = assay: Test B pre/postemergence soybean; type: in vivo, Glycine max
How it was run: as §1

rape = assay: Test B pre/postemergence rape; type: in vivo, Brassica napus
How it was run: as §1

pigweed = assay: Test B pre/postemergence pigweed; type: in vivo, Amaranthus retroflexus
How it was run: as §1

cocklebur = assay: Test B pre/postemergence cocklebur; type: in vivo, Xanthium strumarium
How it was run: as §1

velvetleaf = assay: Test B pre/postemergence velvetleaf; type: in vivo, Abutilon theophrasti
How it was run: as §1

sugar beet = assay: Test B pre/postemergence sugar beet; type: in vivo, Beta vulgaris
How it was run: as §1

wild oat = assay: Test B pre/postemergence wild oat; type: in vivo, Avena fatua
How it was run: as §1

surinam grass = assay: Test B pre/postemergence surinam grass; type: in vivo, Brachiaria decumbens
How it was run: as §1

wheat = assay: Test B pre/postemergence wheat; type: in vivo, Triticum aestivum
How it was run: as §1

crabgrass = assay: Test B pre/postemergence crabgrass; type: in vivo, Digitaria sanguinalis
How it was run: as §1

giant foxtail = assay: Test B pre/postemergence giant foxtail; type: in vivo, Setaria faberii
How it was run: as §1

blackgrass = assay: Test B pre/postemergence blackgrass; type: in vivo, Alopecurus myosuroides
How it was run: as §1

purple nutsedge = assay: Test B pre/postemergence purple nutsedge; type: in vivo, Cyperus rotundus
How it was run: as §1

morningglory = assay: Test B pre/postemergence morningglory; type: in vivo, Ipomoea hederacea
How it was run: as §1

bedstraw = assay: Test B pre/postemergence bedstraw; type: in vivo, Galium aparine; settings: Preemergence
How it was run: as §1

[1] = Postemergence, Rate 62 g/ha, scale 0 to 10, 0 is no effect, 10 is complete control
[2] = Postemergence, Rate 125 g/ha, scale of 0 to 10 where 0 is no effect and 10 is complete control
[3] = Preemergence, Rate 125 g/ha, scale of 0 to 10 where 0 is no effect and 10 is complete control
[4] = Preemergence, Rate 250 g/ha, scale 0 (no effect) to 10 (complete control)
[5] = Rate 62 g/ha, Preemergence, scale 0 to 10
[6] = Rate 250 g/ha, Postemergence, scale 0 to 10, 0 is no effect, 10 is complete control
[7] = Rate 500 g/ha, Postemergence, scale 0 to 10, 0 is no effect, 10 is complete control
[8] = Rate 500 g/ha, Preemergence, scale 0 to 10 (0 no effect, 10 complete control)

## COC1CCC(Cn2c(=O)on(C(=O)N(c3ccc(Cl)cc3)C(C)C)c2=O)=NO1 (stereo not drawn) [Compound 760]
corn; [1]
  Plant response rating, Corn: 0
corn; [2]
  Corn plant response rating: 0
corn; [3]
  Plant response rating, Corn: 0
corn; [4]
  Corn plant response rating: 0
corn; [5]
  Corn plant response rating: 0
corn; [6]
  Corn plant response rating: 1
corn; [7]
  Corn plant response rating: 1
corn; [8]
  Corn plant response rating: 4
soybean; [1]
  Plant response rating, Soybean: 4
soybean; [3]
  Plant response rating, Soybean: 0
soybean; [4]
  Soybean plant response rating: 0
soybean; [5]
  Soybean plant response rating: 0
soybean; [6]
  Soybean plant response rating: 4
soybean; [7]
  Soybean plant response rating: 5
soybean; [8]
  Soybean plant response rating: 0
rape; [1]
  Plant response rating, Rape: 2
rape; [2]
  Rape plant response rating: 1
rape; [3]
  Plant response rating, Rape: 0
rape; [4]
  Rape plant response rating: 2
rape; [5]
  Rape plant response rating: 0
rape; [6]
  Rape plant response rating: 2
rape; [7]
  Rape plant response rating: 5
rape; [8]
  Rape plant response rating: 5
pigweed; [1]
  Plant response rating, Redroot pigweed: 0
pigweed; [2]
  Redroot pigweed plant response rating: 0
pigweed; [3]
  Plant response rating, Redroot pigweed: 7
pigweed; [4]
  Redroot pigweed plant response rating: 9
pigweed; [5]
  Redroot pigweed plant response rating: 7
pigweed; [6]
  Redroot pigweed plant response rating: 2
pigweed; [7]
  Redroot pigweed plant response rating: 3
pigweed; [8]
  Redroot pigweed plant response rating: 9
cocklebur; [1]
  Plant response rating, Cocklebur: 0
cocklebur; [2]
  Cocklebur plant response rating: 0
cocklebur; [4]
  Cocklebur plant response rating: 0
cocklebur; [5]
  Cocklebur plant response rating: 0
cocklebur; [6]
  Cocklebur plant response rating: 0
cocklebur; [7]
  Cocklebur plant response rating: 1
cocklebur; [8]
  Cocklebur plant response rating: 0
velvetleaf; [1]
  Plant response rating, Velvetleaf: 0
velvetleaf; [3]
  Plant response rating, Velvetleaf: 0
velvetleaf; [4]
  Velvetleaf plant response rating: 0
velvetleaf; [5]
  Velvetleaf plant response rating: 0
velvetleaf; [6]
  Velvetleaf plant response rating: 0
velvetleaf; [7]
  Velvetleaf plant response rating: 3
velvetleaf; [8]
  Velvetleaf plant response rating: 0
Sugar beet; [1]
  Plant response rating, Sugarbeets: 0
Sugar beet; [3]
  Plant response rating, Sugarbeets: 3
Sugar beet; [4]
  Sugarbeets plant response rating: 3
Sugar beet; [5]
  Sugarbeets plant response rating: 3
Sugar beet; [6]
  Sugarbeets plant response rating: 0
Sugar beet; [7]
  Sugarbeets plant response rating: 0
Sugar beet; [8]
  Sugarbeets plant response rating: 6
Wild oat; [1]
  Plant response rating, Wild oats: 0
Wild oat; [3]
  Plant response rating, Wild oats: 0
Wild oat; [4]
  Wild oats plant response rating: 2
Wild oat; [5]
  Wild oats plant response rating: 0
Wild oat; [6]
  Wild oats plant response rating: 0
Wild oat; [7]
  Wild oats plant response rating: 4
Wild oat; [8]
  Wild oats plant response rating: 6
Surinam grass; [1]
  Plant response rating, B. signalgrass: 0
Surinam grass; [2]
  B. signalgrass plant response rating: 0
Surinam grass; Preemergence, Rate 62 g/ha, scale of 0 to 10 where 0 is no effect and 10 is complete control
  B. signalgrass plant response rating: 2
Surinam grass; [3]
  Plant response rating, B. signalgrass: 3
Surinam grass; [4]
  B. signalgrass plant response rating: 10
Surinam grass; [6]
  B. signalgrass plant response rating: 0
Surinam grass; [7]
  B. signalgrass plant response rating: 5
Surinam grass; [8]
  B. signalgrass plant response rating: 10
wheat; [1]
  Plant response rating, Wheat: 0
wheat; [3]
  Plant response rating, Wheat: 0
wheat; [4]
  Wheat plant response rating: 0
wheat; [5]
  Wheat plant response rating: 0
wheat; [6]
  Wheat plant response rating: 0
wheat; [7]
  Wheat plant response rating: 0
wheat; [8]
  Wheat plant response rating: 3
crabgrass; [1]
  Plant response rating, Crabgrass: 5
crabgrass; [2]
  Crabgrass plant response rating: 6
crabgrass; [3]
  Plant response rating, Crabgrass: 7
crabgrass; [4]
  Crabgrass plant response rating: 10
crabgrass; [5]
  Crabgrass plant response rating: 2
crabgrass; [6]
  Crabgrass plant response rating: 9
crabgrass; [8]
  Crabgrass plant response rating: 10
Giant foxtail; [1]
  Plant response rating, Giant foxtail: 0
Giant foxtail; [2]
  Giant foxtail plant response rating: 7
Giant foxtail; [3]
  Plant response rating, Giant foxtail: 9
Giant foxtail; [4]
  Giant foxtail plant response rating: 10
Giant foxtail; [5]
  Giant foxtail plant response rating: 8
Giant foxtail; [6]
  Giant foxtail plant response rating: 7
Giant foxtail; [7]
  Giant foxtail plant response rating: 7
Giant foxtail; [8]
  Giant foxtail plant response rating: 10
blackgrass; [1]
  Plant response rating, Blackgrass: 0
blackgrass; [2]
  Blackgrass plant response rating: 0
blackgrass; [3]
  Plant response rating, Blackgrass: 4
blackgrass; [4]
  Blackgrass plant response rating: 6
blackgrass; [5]
  Blackgrass plant response rating: 0
blackgrass; [6]
  Blackgrass plant response rating: 0
blackgrass; [7]
  Blackgrass plant response rating: 3
blackgrass; [8]
  Blackgrass plant response rating: 9
Purple nutsedge; [1]
  Plant response rating, Nutsedge: 0
Purple nutsedge; [2]
  Nutsedge plant response rating: 0
Purple nutsedge; [3]
  Plant response rating, Nutsedge: 0
Purple nutsedge; [4]
  Nutsedge plant response rating: 0
Purple nutsedge; [5]
  Nutsedge plant response rating: 0
Purple nutsedge; [6]
  Nutsedge plant response rating: 0
Purple nutsedge; [7]
  Nutsedge plant response rating: 0
Purple nutsedge; [8]
  Nutsedge plant response rating: 0
morningglory; [1]
  Plant response rating, Morningglory: 3
morningglory; [2]
  Morningglory plant response rating: 3
morningglory; [3]
  Plant response rating, Morningglory: 0
morningglory; [4]
  Morningglory plant response rating: 0
morningglory; [5]
  Morningglory plant response rating: 0
morningglory; [6]
  Morningglory plant response rating: 3
morningglory; [7]
  Morningglory plant response rating: 3
morningglory; [8]
  Morningglory plant response rating: 0
bedstraw; Rate 125 g/ha, scale of 0 to 10 where 0 is no effect and 10 is complete control
  Plant response rating, Bedstraw: 0
bedstraw; Rate 250 g/ha, scale 0 (no effect) to 10 (complete control)
  Bedstraw plant response rating: 0
bedstraw; Rate 62 g/ha, scale 0 to 10
  Bedstraw plant response rating: 0
bedstraw; Rate 500 g/ha, scale 0 to 10 (0 no effect, 10 complete control)
  Bedstraw plant response rating: 6
